# Experimental data reported in ChEMBL document CHEMBL1156250, “Novel three-component domino reactions of ketones, isatin and amino acids: synthesis and discovery of antimycobacterial activity of highly functionalised novel dispiropyrrolidines” (2010).
# Key:
# Assay type in all cases: functional
# [1] = test system: Mycobacterium tuberculosis; assay: Antimycobacterial activity against Mycobacterium tuberculosis H37Rv by agar dilution method
# [2] = test system: Mycobacterium tuberculosis; assay: Ratio of compound MIC over pyrazinamide MIC for Mycobacterium tuberculosis H37Rv
# [3] = test system: Mycobacterium tuberculosis; assay: Ratio of compound MIC over ethambutol MIC for Mycobacterium tuberculosis H37Rv
SMILES,MIC [1] [µM],further results
O=C1Nc2ccc(Br)cc2C12C1CCCN1C1(C(=O)Nc3ccc(Br)cc31)C1CCCN12 (stereo not drawn),5.61,
CC(C)c1cccc2c1NC(=O)C21NC(c2ccccc2)C(c2ccccc2)C12CN(C)CCC2=O (stereo not drawn),26.1,
Cc1ccc2c(c1)C1(NC(c3ccccc3)C(c3ccccc3)C13CCCCC3=O)C(=O)N2 (stereo not drawn),115,
CN1CCC(=O)C2(C1)C(c1ccccc1)C(c1ccccc1)NC21C(=O)Nc2ccc(Br)cc21 (stereo not drawn),6.06,
CC(C)c1cccc2c1NC(=O)C21NC(c2ccccc2)C(c2ccccc2)C12CCCC2=O (stereo not drawn),27.7,
CC(C)c1cccc2c1NC(=O)C21NC(c2ccccc2)C(c2ccccc2)C12CCCCC2=O (stereo not drawn),13.4,
CN1CCC(=O)C2(CCN(C)C23C(=O)Nc2ccc(Cl)cc23)C1 (stereo not drawn),37.5,
CN1CCC2(CN(N=O)CCC2=O)C12C(=O)Nc1ccc(Cl)cc12 (stereo not drawn),4.47,
CN1CCC2(CCCC2=O)C12C(=O)Nc1ccc(Br)cc12 (stereo not drawn),8.96,
CN1CCC2(CCCCC2=O)C12C(=O)Nc1ccc(Br)cc12 (stereo not drawn),4.29,
Cc1ccc2c(c1)C1(NC(c3ccccc3)C(c3ccccc3)C13CN(C)CCC3=O)C(=O)N2 (stereo not drawn),55.4,
CN1CCC2(CCCCC2=O)C12C(=O)Nc1ccc(Cl)cc12 (stereo not drawn),39.2,
CN1CCC2(CCCCCC2=O)C12C(=O)Nc1ccc(Cl)cc12 (stereo not drawn),18.8,
CC(C)c1cccc2c1NC(=O)C21N(C)CCC12CCCCC2=O (stereo not drawn),38.3,
CC(C)c1cccc2c1NC(=O)C21N(C)CCC12CCCC2=O (stereo not drawn),160,
CN1CCC2(CCCCCC2=O)C12C(=O)Nc1ccc(Br)cc12 (stereo not drawn),4.13,
CN1CCC(=O)C2(CCN(C)C23C(=O)Nc2ccc(Br)cc23)C1 (stereo not drawn),33,
Cc1ccc2c(c1)C1(NC(c3ccccc3)C(c3ccccc3)C13CN(c1ccccc1)CCC3=O)C(=O)N2 (stereo not drawn),23.7,
O=C1Nc2ccc(Br)cc2C12NC(c1ccccc1)C(c1ccccc1)C21CN(c2ccccc2)CCC1=O (stereo not drawn),10.6,
O=C1Nc2ccc(Cl)cc2C12NC(c1ccccc1)C(c1ccccc1)C21CCCCC1=O (stereo not drawn),13.7,
CN1CCC(=O)C2(C1)C(c1ccccc1)C(c1ccccc1)NC21C(=O)Nc2ccc(Cl)cc21 (stereo not drawn),26.5,

SMILES,MIC [1] [µM],further results
CC(C)c1cccc2c1NC(=O)C21N(C)CCC12CN(C)CCC2=O (stereo not drawn),36.6,
CC(C)c1cccc2c1NC(=O)C21N(C)CCC12CN(N=O)CCC2=O (stereo not drawn),8.78,
Cc1ccc2c(c1)C1(C(=O)N2)N(C)CCC12CCCCC2=O (stereo not drawn),41.9,
O=C1Nc2ccccc2C12C1CCCN1C1(C(=O)Nc3ccccc31)C1CCCN12 (stereo not drawn),125,
Cc1ccc2c(c1)C1(C(=O)N2)C2CCCN2C2(C(=O)Nc3ccc(C)cc32)C2CCCN21 (stereo not drawn),29.2,
O=C1Nc2ccc(Cl)cc2C12NC(c1ccccc1)C(c1ccccc1)C21CN(c2ccccc2)CCC1=O (stereo not drawn),22.8,
O=C1Nc2ccc(Br)cc2C12NC(c1ccccc1)C(c1ccccc1)C21CCCCC1=O (stereo not drawn),6.24,
CN1CCC2(CN(N=O)CCC2=O)C12C(=O)Nc1ccc(Br)cc12 (stereo not drawn),1.98,Ratio [2]: 25.64; Ratio [3]: 3.86
CC(C)c1cccc2c1NC(=O)C21N(C)CCC12CCCCCC2=O (stereo not drawn),73.4,
Cc1ccc2c(c1)C1(C(=O)N2)N(C)CCC12CCCCCC2=O (stereo not drawn),40,
Cc1ccc2c(c1)C1(C(=O)N2)N(C)CCC12CN(C)CCC2=O (stereo not drawn),19.9,
CC(C)c1cccc2c1NC(=O)C21NC(c2ccccc2)C(c2ccccc2)C12CN(c1ccccc1)CCC2=O (stereo not drawn),22.5,
Cc1ccc2c(c1)C1(C(=O)N2)N(C)CCC12CN(N=O)CCC2=O (stereo not drawn),4.75,
CN1CCC2(CCCC2=O)C12C(=O)Nc1ccc(Cl)cc12 (stereo not drawn),41,
O=C1Nc2ccc(Cl)cc2C12C1CCCN1C1(C(=O)Nc3ccc(Cl)cc31)C1CCCN12 (stereo not drawn),26.6,
O=C1Nc2ccccc2C12NC(c1ccccc1)C(c1ccccc1)C21CCCC1=O (stereo not drawn),61.2,
O=C1Nc2ccccc2C12NC(c1ccccc1)C(c1ccccc1)C21CCCCC1=O (stereo not drawn),118,
CC[C@@H](CO)NCCN[C@@H](CC)CO [ETHAMBUTOL],7.64,
NNC(=O)c1ccncc1 [ISONIAZID],0.36,
NC(=O)c1cnccn1 [PYRAZINAMIDE],50.8,
